Here are results for one molecule from patent US20260176266A1, “PIPERIDINOPYRIMIDINE DERIVATIVE, PREPARATION METHOD THEREFOR AND USE THEREOF IN MEDICINE” (TUOJIE BIOTECH (SHANGHAI) CO., LTD., priority 2022, published 2026).

Series [1] is described as follows: Human liver microsome metabolism study. Format: in vitro ADME. Conditions: human liver microsomes. As to the method:
222.5 μL of human liver microsomes (protein concentration: 1 mg/mL) and 25 μL of NADPH ([…]) were added to an incubation plate and pre-heated for 10 min. 2.5 μL of control compound and test compound (100 μM) were added.
[…] The reaction was stopped by adding 5 volumes of cold acetonitrile containing IS (100 nM alprazolam, 200 nM caffeine, and 100 nM tolbutamide). The reaction mixture was centrifuged, and 100 μL of the supernatant was collected and mixed with 100 μL of ultrapure H2O. Then the mixture was analyzed by LC-MS/MS.
The slope value k was determined by linear regression of the natural logarithm of a curve of the parent drug remaining percentage versus incubation time.
The in-vitro half-life (in-vitro T1/2) was determined by the slope value:
Using the following equation (the average of repeated measurements), the in-vitro T½ (min) was converted to the in-vitro intrinsic clearance rate (in-vitro CLint, in μL/min/mg protein): […]

For the next series, the target named is CDK2/CyclinE1 (Homo sapiens, UniProt P24941). The series can be described thus: ADP-Glo kinase assay, CDK2. Format: biochemical. Particulars: 1 nM CDK2/CyclinE1, 15 μM ATP (Km), Histone H1, 60 min; read-out: inhibitory activity (IC50, nM) CDK2. As for the experimental part: (§1) The ADP-Glo kinase assay was used for testing the activity of CDKs. The compounds were diluted in 384-well plates using Echo. The starting concentration was 10 μM and was 3-fold diluted to obtain 10 concentration points, each tested in duplicate, and the final concentration of DMSO in the assay system was 1%. CDK solutions (the final concentrations were 16.5 nM CDK1/CyclinB, 1 nM CDK2/CyclinE1, 16.3 nM CDK4/CyclinD1, 11.5 nM CDK5/p25, 15.7 nM CDK6/CyclinD3, 80 nM CDK7/Cyclin H/MAT1, 15.3 nM CDK9/Cyclin T1, and 150 nM CDK12/CyclinK) prepared in assay buffer were added at 2.5 μL, and the enzymes and compounds were pre-incubated at room temperature for 10 min. ATP (the concentration was Km) & substrate solutions (20 μM ATP & 0.1 mg/mL Histone H1 Protein for CDK1/CyclinB, 15 μM ATP & 0.1 mg/mL Histone H1 Protein for CDK2/CyclinE1, 200 μM ATP & 0.2 mg/mL DYRKtide peptide for CDK4/CyclinD1, 10 μM ATP & 0.1 mg/mL Histone H1 Protein for CDK5/p25, 200 μM ATP & 0.1 mg/mL Histone H1 Protein for CDK6/CyclinD3, 70 μM ATP & 0.2 mg/mL MBP for CDK7/Cyclin H/MAT1, 60 μM ATP & 0.2 mg/mL PDKtide for CDK9/Cyclin T1, and 20 μM ATP & 80 μM pS7-CTD peptide for CDK12/CyclinK) prepared in assay buffer were added at 2.5 μL. After thorough mixing, the plates were incubated at room temperature, with CDK1/4/9/12/13 incubated for 120 min and CDK2/5/6/7 incubated for 60 min. ADP-Glo reagents were added at 4 μL, and the plates were incubated at room temperature for 40 min. Kinase detection reagents were added at 8 μL, and the plates were incubated at room temperature for 40 min. Readings were taken using an Envision multimode microplate reader. Data were processed using GraphPad Prism 8, and IC50 was calculated.
(§2) [formula] • X: the logarithm of the compound concentration; Y: % inhibition.
On the technique in general: ADP-Glo first removes unused ATP, then detects ADP through luciferase.

In another series the target is CDK7/Cyclin H/MAT1 (Homo sapiens, UniProt P50613). The series can be described thus: ADP-Glo kinase assay, CDK7. Format: biochemical. Conditions: 80 nM CDK7/Cyclin H/MAT1, 70 μM ATP (Km), MBP, 60 min; read-out: inhibitory activity (IC50, nM) CDK7. As for the experimental part: as §1, §2
CDK7/Cyclin H/MAT1, sequence (P50613 whole entry, species assumed): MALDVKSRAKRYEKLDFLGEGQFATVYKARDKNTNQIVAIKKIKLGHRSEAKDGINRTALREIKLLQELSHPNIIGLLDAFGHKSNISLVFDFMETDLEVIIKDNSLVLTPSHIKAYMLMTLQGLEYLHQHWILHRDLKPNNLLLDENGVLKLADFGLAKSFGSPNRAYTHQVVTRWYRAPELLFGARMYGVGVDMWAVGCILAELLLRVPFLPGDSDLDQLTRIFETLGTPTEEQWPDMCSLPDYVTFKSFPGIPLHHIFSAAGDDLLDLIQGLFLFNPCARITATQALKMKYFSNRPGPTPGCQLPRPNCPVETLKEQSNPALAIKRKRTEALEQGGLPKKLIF
CDK7/Cyclin H/MAT1, sequence (P51946 whole entry partner, species assumed): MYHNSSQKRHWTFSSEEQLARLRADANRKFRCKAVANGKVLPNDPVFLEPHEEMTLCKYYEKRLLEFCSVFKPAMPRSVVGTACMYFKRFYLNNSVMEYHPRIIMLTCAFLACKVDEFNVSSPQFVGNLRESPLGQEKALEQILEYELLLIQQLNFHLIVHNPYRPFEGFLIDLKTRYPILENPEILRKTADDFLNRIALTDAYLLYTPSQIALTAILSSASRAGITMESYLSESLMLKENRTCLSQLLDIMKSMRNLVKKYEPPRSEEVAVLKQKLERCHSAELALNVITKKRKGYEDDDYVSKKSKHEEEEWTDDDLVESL
CDK7/Cyclin H/MAT1, sequence (P51948 whole entry partner, species assumed): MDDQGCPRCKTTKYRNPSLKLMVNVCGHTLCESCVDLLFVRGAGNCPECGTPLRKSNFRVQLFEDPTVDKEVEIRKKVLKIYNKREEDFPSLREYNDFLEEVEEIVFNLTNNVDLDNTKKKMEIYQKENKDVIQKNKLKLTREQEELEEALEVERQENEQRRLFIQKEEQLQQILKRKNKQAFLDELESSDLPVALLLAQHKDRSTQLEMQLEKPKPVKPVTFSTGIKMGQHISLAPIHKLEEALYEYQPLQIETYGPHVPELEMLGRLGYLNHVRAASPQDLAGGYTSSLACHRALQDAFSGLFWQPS

As a reminder, the half-life is the time in which the quantity being followed falls by half. Lower therefore signals rapid decline. As a reminder, the microsomal CLint is a measure of how fast metabolising enzymes remove a compound, apart from limits set by blood flow. Low readings indicate slow turnover, high ones rapid turnover. As usually defined, the IC50 is the concentration at which inhibition is half-maximal. For `C[C@@H]1Cc2cnc(NCc3ccn(C)n3)nc2CN1C(=O)[C@H]1CCN(C)C[C@@H]1c1ccccc1` [Janssen-01, reference compound], the half-life at 1 μM in series [1] (in-vitro half-life) was found to be 1.22 h. The same molecule returned a microsomal CLint at 1 μM in series [1] (in-vitro intrinsic clearance) of 19 µL/min/mg. In addition, the “Remaining amount % at 0.5 min” value in series [1] (incubation 0.5 min) is 100.00%. Besides, the “Remaining amount % at 5 min” value in series [1] (incubation 5 min) is 91.32%. Further, the “Remaining amount % at 15 min” value in series [1] (incubation 15 min) came to 78.60%. The “Remaining amount % at 30 min” value in series [1] (incubation 30 min) is listed as 68.95%. Also, the “Remaining amount % at 60 min” value in series [1] (incubation 60 min) was found to be 55.59%. Also, the IC50 is 933 nM on CDK2/CyclinE1 and 25.2 nM at CDK7/Cyclin H/MAT1.
